[ ]: non-standard residue; d: D form. pY = N[C@@H](Cc1ccc(OP(=O)(O)O)cc1)C(=O)O
Tests used:
[1] = system: human breast and liver cancer xenografts; conditions: human breast and liver cancer xenografts in mouse models; cited from earlier work
[2] = molecular target: binding of FLAG-STAT3 to HA-STAT3 (Mus musculus, UniProt P42227); assay: co-immunoprecipitation of FLAG-STAT3 with HA-STAT3 in HEK293 cells; assay type: cell-based, human; conditions: HEK293 cells co-expressing FLAG- and HA-STAT3; treated 4 h
Sequence of binding of FLAG-STAT3 to HA-STAT3 (P42227 whole entry): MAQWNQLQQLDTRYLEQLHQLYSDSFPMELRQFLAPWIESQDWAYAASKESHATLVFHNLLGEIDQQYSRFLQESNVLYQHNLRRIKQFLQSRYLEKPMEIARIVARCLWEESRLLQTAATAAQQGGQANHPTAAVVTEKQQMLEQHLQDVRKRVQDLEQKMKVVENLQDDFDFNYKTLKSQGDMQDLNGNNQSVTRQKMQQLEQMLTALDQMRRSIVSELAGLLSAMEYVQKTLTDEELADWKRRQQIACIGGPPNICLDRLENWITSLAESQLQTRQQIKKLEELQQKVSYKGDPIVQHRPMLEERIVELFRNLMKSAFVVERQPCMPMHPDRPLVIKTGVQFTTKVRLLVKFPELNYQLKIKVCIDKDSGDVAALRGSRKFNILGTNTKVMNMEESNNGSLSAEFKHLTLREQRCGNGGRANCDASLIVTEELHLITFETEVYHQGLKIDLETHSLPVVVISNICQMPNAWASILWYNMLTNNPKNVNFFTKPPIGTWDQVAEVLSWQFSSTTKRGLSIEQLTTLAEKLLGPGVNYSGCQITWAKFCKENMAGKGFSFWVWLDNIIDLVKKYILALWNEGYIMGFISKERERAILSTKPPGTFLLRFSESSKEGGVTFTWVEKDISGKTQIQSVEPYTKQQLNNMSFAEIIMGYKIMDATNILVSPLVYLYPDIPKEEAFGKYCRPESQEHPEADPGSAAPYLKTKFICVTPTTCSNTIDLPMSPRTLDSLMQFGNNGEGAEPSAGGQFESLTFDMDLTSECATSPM
Protocol: HEK-293/FLAG-STAT3/HA-STAT3 cells were treated for 4 h with vehicle, S3I-1757, S3I-1756, Ac-G{pTYR}LPQTV-[…]-NH2 (SEQ ID NO:3) or Ac-GYLPQTV-[…]-NH2 (SEQ ID NO:4) and then lysed in 20 mM Tris-HCl (pH 7.4), 5 mM EDTA, 10 mM Na4P2O7, 100 mM NaF, 2 mM Na3VO4, 1% NP-40.1 mM PMSF and 10 mg/ml aprotinin. For EGF stimulation group, HEK-293/FLAG-STAT3/HASTAT3 cells were treated by 100 ng/ml EGF for 30 minutes before making cell lysate. Protein A or G agarose (EMD Millipore, Billerica, Mass., USA) was washed twice with PBS and restore to 50% slurry with PBS. 500 μg of lysate were pre-cleared by mixture of protein A and protein G-agarose for 1 h at 4° C. and then remove protein A and G-agarose by centrifuge at 1300 rpm for 3 minutes. And then 500 μg of lysate was immunoprecipitated with 50 ng of HA antibody overnight at 4° C. on shaker and then capture the immunocomplex by adding 100 μl Protein A and G agarose/sepharose bead slurry for 1 hour at 4° C. Samples were washed five times with lysis buffer and then boiled in 5×SDS-PAGE sample buffer and run on SDS-PAGE gel. Protein was transferred to nitrocellulose membrane and then blotted as described above for HA, FLAG, pSTAT3, EGFR, and STAT3.
However, the FP assay only measured the ability of S3I-1757 to displace the 7 amino acid fluorescein-labelled GpYLPQTV phosphotyrosine peptide from the SH2 domain of STAT3 protein in vitro. Therefore, it was determined if the intracellular reciprocal binding of 2 full-length STAT3 proteins is inhibited. To this end, an assay was developed to measure directly STAT3-STAT3 dimerization in intact cells by cloning HA-tagged STAT3 and FLAG-tagged STAT3, generating HEK293 cells that stably co-express HA-STAT3 and FLAG-STAT3 and using these cells for coimmunoprecipitation and co-localization. […] This assay was validated by treating the FLAG-STAT3/HA-STAT3 HEK293 cells with tyrosine phosphorylated or nonphosphorylated GYLPQTV peptide fused to a membrane-translocating sequence (MTS) to allow cell uptake. […]

[3] = system: STAT3-DNA binding activity in MDA-MB-468 and A-549 cells; assay: STAT3-DNA binding filter plate assay on nuclear extracts; assay type: cell-based, human; conditions: 1, 2 or 4 hours
Protocol: Nuclear extract preparation was carried out as described in Yu, et al., Science 1995; 269(5220):81-83. The STAT3-DNA binding filter plate assay was performed following the manual of the filter plate assay kit (Signosis, Sunnyvale, Calif.), as described for NFkB (Ying, et al., Blood 2011; 117(4):1301-1307). The TF Binding buffer was mixed with the STAT3 probe (biotin labeled STAT3 DNA binding sequence) and nuclear extract and incubated at 16° C. for 30 minutes to form the STAT3-DNA complex. The STAT3-DNA complex was then separated from free probe by using a filter plate. After several steps of binding and washing, bound STAT3 probe is retained on the filter in the corresponding well of Filer Plate and the free DNA probe is removed. The bound pre-labeled STAT3 probe was then eluted from the filter plate by centrifuge with elution buffer. Eluted probes were then hybridized into 96-well Hybridization Plate for quantitative analysis. The captured STAT3 probe was further detected by conjugation with streptavidin-HRP. The chemiluminescence of each well was detected by 2104 EnVisionR Multilabel Reader of PerkinElmer (Pekin Elmer, Waltham, Mass., USA) within 5 minutes after mixture with substrates. […]

[4] = system: P-STAT3 in the nucleus of MDA-MB-468 cells; assay: P-STAT3 nuclear accumulation by immunofluorescence; assay type: cell-based, human; conditions: 18 hours, various concentrations
Protocol: MDA-MB-468 cells were plated at 4000 cells/well in 8-chamber slide. […] Cells were fixed, washed, and permeabilized as describe above. Specimens were then blocked in 1% bovine serum albumin (BSA) for 30 min and incubated with anti-pSTAT3 (Cell Signaling), antibody at 1:50 dilution at 4° C. overnight. Subsequently, cells were rinsed 4-5 times in PBS, incubated with Alexa Fluor secondary antibody for 1 hour at room temperature in the dark. Specimens were then washed 5 times with PBS, covered with cover slides with [sequence] mounting medium containing DAPI (Vector Lab, Inc., Burlingame, Calif.), and examined immediately under Zeiss Upright Fluorescence Microscope (Zeiss, Thornwood, N.Y., USA).

Compound: O=C(c1ccc(Oc2ccccc2)cc1)N(Cc1ccc(C2CCCCC2)cc1)c1ccc(P(=O)(O)O)cc1 [Compound 17a, 4-(N-(4-Cyclohexylbenzyl)-4-phenoxybenzamido)phenylphosphonic acid]
- melting point: 182.7 °C (dec.)

Compound: Cc1ccc(S(=O)(=O)OCC(=O)Nc2ccc(C(=O)O)c(O)c2)cc1 [Compound S3I-201]
- antitumor effects in xenografts [1]: exert antitumor effects against human breast and liver cancer xenografts in mouse models

Compound: O=C(c1ccc(Oc2ccccc2)cc1)N(Cc1ccc(C2CCCCC2)cc1)c1cccc(CP(=O)(O)O)c1 [Compound 17d, 3-(N-(4-Cyclohexylbenzyl)-4-phenoxybenzamido)benzylphosphonic acid]
- melting point: 97 °C (dec.)

Compound: O=C(Nc1ccc(CP(=O)(O)O)cc1)c1ccc(Oc2ccccc2)cc1 [Compound 18c, 4-(4-Phenoxybenzamido)benzylphosphonic acid]
- melting point: > 250 °C

Compound: Ac-G{pTYR}LPQTV-AAVLLPVLLAAP-NH2 (Ac-G[pY]LPQTVAAVLLPVLLAAP-NH2; SMILES CC(=O)NCC(=O)N[C@@H](Cc1ccc(OP(=O)(O)O)cc1)C(=O)N[C@@H](CC(C)C)C(=O)N1CCC[C@H]1C(=O)N[C@@H](CCC(N)=O)C(=O)N[C@H](C(=O)N[C@H](C(=O)N[C@@H](C)C(=O)N[C@@H](C)C(=O)N[C@H](C(=O)N[C@@H](CC(C)C)C(=O)N[C@@H](CC(C)C)C(=O)N1CCC[C@H]1C(=O)N[C@H](C(=O)N[C@@H](CC(C)C)C(=O)N[C@@H](CC(C)C)C(=O)N[C@@H](C)C(=O)N[C@@H](C)C(=O)N1CCC[C@H]1C(N)=O)C(C)C)C(C)C)C(C)C)[C@@H](C)O) [P-Pep, reference compound]
- binding of FLAG-STAT3 to HA-STAT3 (co-immunoprecipitation) [2]: inhibited FLAG-STAT3 from co-immunoprecipitating with HA-STAT3

Compound: COc1ccc(CN(C(=O)c2ccc(Oc3ccccc3)cc2)c2ccc(O)c(C(=O)O)c2)cc1 [Compound 20b, 2-Hydroxy-5-(N-(4-methoxybenzyl)-4-phenoxybenzamido)benzoic acid]
- activated STAT3 in nuclear extracts capable of binding the STAT3 DNA binding probe [3]: did not decrease the amount of STAT3 capable of binding DNA
- P-STAT3 nuclear accumulation [4]: little effect with concentrations as high as 200 μM
- binding of FLAG-STAT3 to HA-STAT3 (co-immunoprecipitation) [2]: did not inhibit this binding with concentrations as high as 200 μM

Compound: O=C(c1ccc(Oc2ccccc2)cc1)N(Cc1ccc(C2CCCCC2)cc1)c1ccc(CP(=O)(O)O)cc1 [Compound 17c, 4-(N-(4-Cyclohexylbenzyl)-4-phenoxybenzamido)benzylphosphonic acid]
- melting point: 188 °C (dec.)
